Experimental data: BindingDB's records for doi:10.1016/j.bmc.2016.01.042 (University of California, 2016)

Target: T1, Polyunsaturated fatty acid lipoxygenase ALOX15 (Homo sapiens, UniProt P16050)
T1 sequence (P16050 whole entry): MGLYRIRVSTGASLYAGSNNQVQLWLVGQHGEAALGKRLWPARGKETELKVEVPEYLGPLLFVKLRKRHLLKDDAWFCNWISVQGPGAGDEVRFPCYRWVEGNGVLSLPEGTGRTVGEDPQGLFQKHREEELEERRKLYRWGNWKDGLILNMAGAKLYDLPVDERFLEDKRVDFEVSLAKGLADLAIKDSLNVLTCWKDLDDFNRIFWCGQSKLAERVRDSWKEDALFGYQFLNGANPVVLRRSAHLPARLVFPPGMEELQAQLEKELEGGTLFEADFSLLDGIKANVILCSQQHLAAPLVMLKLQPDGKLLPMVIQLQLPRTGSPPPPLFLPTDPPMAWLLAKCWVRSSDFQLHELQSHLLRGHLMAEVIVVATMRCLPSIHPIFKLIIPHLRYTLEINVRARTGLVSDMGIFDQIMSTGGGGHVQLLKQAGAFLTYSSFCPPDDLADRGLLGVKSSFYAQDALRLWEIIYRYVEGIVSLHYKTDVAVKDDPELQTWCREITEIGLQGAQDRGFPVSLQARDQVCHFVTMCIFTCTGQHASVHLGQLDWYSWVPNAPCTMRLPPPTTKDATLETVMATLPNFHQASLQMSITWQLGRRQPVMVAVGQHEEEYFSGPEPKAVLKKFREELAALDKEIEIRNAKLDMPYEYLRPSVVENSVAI
Experiment: Competitive inhibition of N-terminal His6-tagged human 12/15-LOX using arachidonic acid as substrate by Dixon plot analysis

Ki: 1000 nM
SMILES: Cc1ccc(O)c(-c2cc(-c3ccccc3C)[nH]n2)c1 [4-methyl-2-[5-(2-methylphenyl)-1H-pyrazol-3-yl]phenol]
